Assay results taken from US10681909B2, “Herbicidal triazoles” (FMC Corporation, priority 2014, dated 2020).

How the values were obtained:
velvetleaf [1] = assay: Test A preemergence; assay type: in vivo, Abutilon theophrasti; conditions: Abutilon theophrasti, pre-emergence, 240 h, 0 to 100 scale (0 no effect, 100 complete control), read-out: Plant response rating, Velvetleaf; for pest or weed control at 125 g/ha: 125 g ai/ha; for pest or weed control at 500 g/ha: 500 g ai/ha, approx. 10 d
In short: (§1)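 Pre- and postemergence spray tests in a loam soil–sand mixture: seeded soil received a directed spray, while established seedlings 2–10 cm high at the one- to two-leaf stage were treated over the top. Compounds were carried in non-phytotoxic solvent with surfactant.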

crabgrass, large = assay: Test A postemergence; assay type: in vivo, Digitaria sanguinalis; conditions: Digitaria sanguinalis, post-emergence, 240 h, 0 to 100 scale (0 no effect, 100 complete control), approx. 10 d, read-out: Plant response rating, Crabgrass, Large; for pest or weed control at 125 g/ha: 125 g ai/ha; for pest or weed control at 500 g/ha: 500 g ai/ha
In short: as §1

velvetleaf [2] = assay: Test A postemergence; assay type: in vivo, Abutilon theophrasti; conditions: Abutilon theophrasti, post-emergence, 240 h, 0 to 100 scale (0 no effect, 100 complete control), approx. 10 d, read-out: Plant response rating, Velvetleaf; for pest or weed control at 125 g/ha: 125 g ai/ha; for pest or weed control at 500 g/ha: 500 g ai/ha
In short: as §1

corn = assay: Test C preemergence; assay type: in vivo, Zea mays; conditions: for Plant response rating (scale of 0 to 100 where 0 is no effect and 100 is complete control): Corn, preemergence; for Corn plant response rating (0 to 100): Preemergence, visual rating after 13 to 15 d
In short: (§2)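 Test chemicals in a non-phytotoxic solvent mixture with surfactant were applied to pots of plants at 2 to 18 cm (1- to 4-leaf stage) for postemergence treatment, grown in a peat-based medium with vermiculite, starter nutrients and dolomitic limestone. Preemergence treatment was to seeds freshly planted in loam soil mixed with sand.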

lambsquarters = assay: Test C preemergence; assay type: in vivo, Chenopodium album; conditions: for Plant response rating (scale of 0 to 100 where 0 is no effect and 100 is complete control): Lambsquarters, preemergence; for Lambsquarters plant response rating (0 to 100): Preemergence, visual rating after 13 to 15 d
In short: as §2

bluegrass = assay: Test D preemergence; assay type: in vivo, Poa annua; conditions: scale 0 to 100
Source text: (§3) Seeds of plant species selected from bluegrass (annual bluegrass, Poa annua), blackgrass (Alopecurus myosuroides), canarygrass (Phalaris minor), chickweed (common chickweed, Stellaria media), galium (catchweed bedstraw, Galium aparine), bromegrass, down (downy bromegrass, Bromus tectorum), Russian thistle (Salsola kali), field poppy (Papaver rhoeas), field violet (Viola arvensis), foxtail, green (green foxtail, Setaria viridis), deadnettle (henbit deadnettle, Lamium amplexicaule), ryegrass, Ital. (Italian ryegrass, Lolium multiflorum), kochia (Kochia scoparia), lambsquarters (Chenopodium album), oilseed rape (Brassica napus), pigweed (Amaranthus retroflexus), chamomile (scentless chamomile, Matricaria inodora), speedwell (bird's-eye speedwell, Veronica persica), barley, spring (spring barley, Hordeum vulgare), wheat, spring (spring wheat, Triticum aestivum), buckwheat, wild (wild buckwheat, Polygonum convolvulus), wild mustard (Sinapis arvensis), oat, wild (wild oat, Avena fatua), radish, wild (wild radish, Raphanus raphanistrum), […]), barley, winter (winter barley, Hordeum vulgare), and wheat, winter (winter wheat, Triticum aestivum) were planted into a silt loam soil and treated preemergence with test chemicals formulated in a non-phytotoxic solvent mixture which included a surfactant. At the same time, these species were planted in pots containing Sunshine Redi-Earth® planting medium comprising spaghnum peat moss, vermiculite, starter nutrients and dolomitic limestone and treated with postemergence applications of the test chemicals formulated in the same manner. Plants ranged in height from 2 to 18 cm (1- to 4-leaf stage). Treated plants and controls were maintained in a controlled growth environment for 14 to 21 d after which time all species were compared to controls and visually evaluated. […] A dash (-) response means no test result.

blackgrass [3] = assay: Test D preemergence; assay type: in vivo, Alopecurus myosuroides; conditions: scale 0 to 100
Source text: as §3

wild mustard = assay: Test D preemergence; assay type: in vivo, Sinapis arvensis; conditions: scale 0 to 100
Source text: as §3

oat, wild = assay: Test D preemergence; assay type: in vivo, Avena fatua; conditions: scale 0 to 100
Source text: as §3

blackgrass [4] = assay: Test D postemergence; assay type: in vivo, Alopecurus myosuroides; conditions: scale 0 to 100
Source text: as §3

field violet = assay: Test D postemergence; assay type: in vivo, Viola arvensis; conditions: scale 0 to 100
Source text: as §3

foxtail, green = assay: Test D postemergence; assay type: in vivo, Setaria viridis; conditions: scale 0 to 100
Source text: as §3

oilseed rape = assay: Test D postemergence; assay type: in vivo, Brassica napus; conditions: scale 0 to 100
Source text: as §3

Compound: CCOc1nc(-c2ccc(F)cc2)nn1Cc1ccnc(C(F)(F)F)c1 [Compound 8, 4-[[5-ethoxy-3-(4-fluorophenyl)-1H-1,2,4-triazol-1-yl]methyl]-2-(trifluoromethyl)pyridine]
- pest or weed control at 125 g/ha (velvetleaf [1]): 70%
- pest or weed control at 500 g/ha (velvetleaf [1]): 90%
- pest or weed control at 125 g/ha (crabgrass, large): 100%
- pest or weed control at 500 g/ha (crabgrass, large): 100%
- pest or weed control at 125 g/ha (velvetleaf [2]): 90%
- pest or weed control at 500 g/ha (velvetleaf [2]): 100%
- Plant response rating (scale of 0 to 100 where 0 is no effect and 100 is complete control) (corn; 125 g ai/ha): 65
- Plant response rating (scale of 0 to 100 where 0 is no effect and 100 is complete control) (corn; 250 g ai/ha): 65
- Corn plant response rating (0 to 100) (corn; 31 g ai/ha): 35
- Corn plant response rating (0 to 100) (corn; 62 g ai/ha): 55
- Plant response rating (scale of 0 to 100 where 0 is no effect and 100 is complete control) (lambsquarters; 125 g ai/ha): 100
- Plant response rating (scale of 0 to 100 where 0 is no effect and 100 is complete control) (lambsquarters; 250 g ai/ha): 100
- Lambsquarters plant response rating (0 to 100) (lambsquarters; 31 g ai/ha): 95
- Lambsquarters plant response rating (0 to 100) (lambsquarters; 62 g ai/ha): 98
- Plant response rating: Bluegrass (bluegrass; 31 g ai/ha): 70
- Plant response rating: Bluegrass (bluegrass; 62 g ai/ha): 70
- Plant response rating: Bluegrass (bluegrass; 125 g ai/ha): 100
- Plant response rating: Bluegrass (bluegrass; 250 g ai/ha): 100
- Plant response rating: Blackgrass (blackgrass [3]; 31 g ai/ha): 65
- Plant response rating: Blackgrass (blackgrass [3]; 62 g ai/ha): 70
- Plant response rating: Blackgrass (blackgrass [3]; 125 g ai/ha): 100
- Plant response rating: Blackgrass (blackgrass [3]; 250 g ai/ha): 100
- Plant response rating: Mustard, Wild (wild mustard; 62 g ai/ha): 100
- Plant response rating: Mustard, Wild (wild mustard; 125 g ai/ha): 100
- Plant response rating: Mustard, Wild (wild mustard; 250 g ai/ha): 100
- Plant response rating: Oat, Wild (oat, wild; 62 g ai/ha): 40
- Plant response rating: Oat, Wild (oat, wild; 125 g ai/ha): 70
- Plant response rating: Oat, Wild (oat, wild; 250 g ai/ha): 80
- Plant response rating: Blackgrass (blackgrass [4]; 31 g ai/ha): 50
- Plant response rating: Blackgrass (blackgrass [4]; 62 g ai/ha): 50
- Plant response rating: Blackgrass (blackgrass [4]; 125 g ai/ha): 75
- Plant response rating: Blackgrass (blackgrass [4]; 250 g ai/ha): 70
- Plant response rating: Field Violet (field violet; 31 g ai/ha): 70
- Plant response rating: Field Violet (field violet; 62 g ai/ha): 75
- Plant response rating: Field Violet (field violet; 125 g ai/ha): 90
- Plant response rating: Field Violet (field violet; 250 g ai/ha): 100
- Plant response rating: Foxtail, Green (foxtail, green; 31 g ai/ha): 40
- Plant response rating: Foxtail, Green (foxtail, green; 62 g ai/ha): 75
- Plant response rating: Foxtail, Green (foxtail, green; 125 g ai/ha): 75
- Plant response rating: Foxtail, Green (foxtail, green; 250 g ai/ha): 85
- Plant response rating: Oilseed Rape (oilseed rape; 31 g ai/ha): 70
- Plant response rating: Oilseed Rape (oilseed rape; 62 g ai/ha): 75
- Plant response rating: Oilseed Rape (oilseed rape; 125 g ai/ha): 100
- Plant response rating: Oilseed Rape (oilseed rape; 250 g ai/ha): 100

Compound: CCc1nc(-c2ccc(C(F)(F)F)cc2)nn1Cc1ccnc(C(F)(F)F)c1 [Compound 1, 4-[[5-ethyl-3-[4-(trifluoromethyl)phenyl]-1H-1,2,4-triazol-1-yl]methyl]-2-(trifluoromethyl)pyridine]
- pest or weed control at 125 g/ha (velvetleaf [1]): 30%
- pest or weed control at 500 g/ha (velvetleaf [1]): 100%
- pest or weed control at 125 g/ha (crabgrass, large): 100%
- pest or weed control at 500 g/ha (crabgrass, large): 100%
- pest or weed control at 125 g/ha (velvetleaf [2]): 90%
- pest or weed control at 500 g/ha (velvetleaf [2]): 100%
- Plant response rating (scale of 0 to 100 where 0 is no effect and 100 is complete control) (corn; 125 g ai/ha): 25
- Plant response rating (scale of 0 to 100 where 0 is no effect and 100 is complete control) (corn; 250 g ai/ha): 40
- Corn plant response rating (0 to 100) (corn; 31 g ai/ha): 5
- Corn plant response rating (0 to 100) (corn; 62 g ai/ha): 15
- Plant response rating (scale of 0 to 100 where 0 is no effect and 100 is complete control) (lambsquarters; 125 g ai/ha): 98
- Plant response rating (scale of 0 to 100 where 0 is no effect and 100 is complete control) (lambsquarters; 250 g ai/ha): 98
- Lambsquarters plant response rating (0 to 100) (lambsquarters; 31 g ai/ha): 90
- Lambsquarters plant response rating (0 to 100) (lambsquarters; 62 g ai/ha): 98
- Plant response rating: Bluegrass (bluegrass; 31 g ai/ha): 10
- Plant response rating: Bluegrass (bluegrass; 62 g ai/ha): 35
- Plant response rating: Bluegrass (bluegrass; 125 g ai/ha): 60
- Plant response rating: Bluegrass (bluegrass; 250 g ai/ha): 100
- Plant response rating: Blackgrass (blackgrass [3]; 31 g ai/ha): 15
- Plant response rating: Blackgrass (blackgrass [3]; 62 g ai/ha): 35
- Plant response rating: Blackgrass (blackgrass [3]; 125 g ai/ha): 35
- Plant response rating: Blackgrass (blackgrass [3]; 250 g ai/ha): 65
- Plant response rating: Mustard, Wild (wild mustard; 62 g ai/ha): 100
- Plant response rating: Mustard, Wild (wild mustard; 125 g ai/ha): 100
- Plant response rating: Mustard, Wild (wild mustard; 250 g ai/ha): 100
- Plant response rating: Oat, Wild (oat, wild; 62 g ai/ha): 0
- Plant response rating: Oat, Wild (oat, wild; 125 g ai/ha): 15
- Plant response rating: Oat, Wild (oat, wild; 250 g ai/ha): 45
- Plant response rating: Blackgrass (blackgrass [4]; 31 g ai/ha): 10
- Plant response rating: Blackgrass (blackgrass [4]; 62 g ai/ha): 20
- Plant response rating: Blackgrass (blackgrass [4]; 125 g ai/ha): 30
- Plant response rating: Blackgrass (blackgrass [4]; 250 g ai/ha): 45
- Plant response rating: Field Violet (field violet; 31 g ai/ha): 100
- Plant response rating: Field Violet (field violet; 62 g ai/ha): 100
- Plant response rating: Field Violet (field violet; 125 g ai/ha): 100
- Plant response rating: Field Violet (field violet; 250 g ai/ha): 100
- Plant response rating: Foxtail, Green (foxtail, green; 31 g ai/ha): 25
- Plant response rating: Foxtail, Green (foxtail, green; 62 g ai/ha): 45
- Plant response rating: Foxtail, Green (foxtail, green; 125 g ai/ha): 65
- Plant response rating: Foxtail, Green (foxtail, green; 250 g ai/ha): 75
- Plant response rating: Oilseed Rape (oilseed rape; 31 g ai/ha): 70
- Plant response rating: Oilseed Rape (oilseed rape; 62 g ai/ha): 80
- Plant response rating: Oilseed Rape (oilseed rape; 125 g ai/ha): 100
- Plant response rating: Oilseed Rape (oilseed rape; 250 g ai/ha): 100
